Results on 3 compounds are retold here after US20250248933A1, “Prophylactic and Therapeutic Agents for Upper Respiratory Tract Infections Caused by Influenza and Other Enveloped Viruses” (priority 2020, published 2025).

One data set relates to rhinoviruses. The settings on record: cited from earlier work.
Another data set concerns common colds. The settings on record: 37 zinc-treated subjects; cited from earlier work.
For a further data set, the system named is rhinovirus. The following applies: cited from earlier work.
In a further data set the test system is common cold germs. The settings on record: cited from earlier work.
The subject of a further data set is influenza viruses. The settings on record: determined by the present inventor.
For data set [1] the following is noted: in vivo; cited from earlier work.

Regarding zinc, in the data set with rhinoviruses, the “inhibition of replication of rhinoviruses” value is “inhibit the replication”. Besides, the “subjects asymptomatic after seven days” value with common colds is 86%.
Regarding `CCO` [Ethanol, ethanol], the activity against rhinovirus entry in the data set on rhinovirus is “works well”. Further, the “killing of common cold germs in oral mucosa” value in the data set with common cold germs is listed as “known to kill”. Moreover, in the data set with influenza viruses, the “ability to kill influenza viruses” value was “ineffective”.
For the compound `CCCc1cc(=O)oc2c3c(c4c(c12)OC(C)(C)C=C4)O[C@H](C)[C@@H](C)[C@@H]3O` [Calanolide A], the safety and tolerability result in data set [1] was “safe and well tolerated”.
